Assay results as given in article PMC12476894, “Identification of α‑Azacyclic Acetamide-Based Inhibitors of P. falciparum Na^+ Pump (PfATP4) with Fast-Killing Asexual Blood-Stage Antimalarial Activity by Phenotypic Screening” (ACS Infectious Diseases, 2025).
In brackets after ≈: the same amount, converted by molar mass. Several values for one entry are separate records, joined by “and”; a condition that tells them apart may be missing. Equal values may be shown once. Read-outs that look alike come from different tables or passages of the source.

Tests used:
[1] = tested on: P. falciparum 3D7 parasites (Pf3D7); experiment: 72 h SYBR Green growth inhibition, ABS P. falciparum 3D7 (Phillips Lab); assay type: cell-based, Plasmodium falciparum; conditions: Plasmodium falciparum, 3D7; 72 h SYBR Green assay; mean ± SEM (n)
[2] = tested on: P. falciparum Dd2 (PfDd2) parasites; experiment: 72 h SYBR Green growth inhibition, ABS P. falciparum Dd2 (Phillips Lab); assay type: cell-based, Plasmodium falciparum; conditions: Plasmodium falciparum, DD2, 72 h, read-out: PfDd2 EC50
[3] = tested on: Dd2 PfATP4^P412L mutant clones; experiment: 72 h SYBR Green growth inhibition, 2-selected Dd2 clones with PfATP4 P412L (Phillips Lab); assay type: cell-based, Plasmodium falciparum; conditions: for EC50: Plasmodium falciparum
Method: (§1) To confirm the MOA for the α-azacyclic acetamides against P. falciparum and to obtain potential information about whether or not they bind PfATP4 at an overlapping site with that of KAE609, we undertook resistance selections using PfDd2 parasites using the published cycling drug selection method. , α-Azacyclic acetamides 2 and 3 were chosen as representative examples of the pyrrole- and indole-based series, respectively. […] Additional cycles were performed at 20 × EC50, until resistant parasites were detected based on a fold change in EC50 compared to the parental clonal Dd2 line (Table S3). Resistant parasites were detected in the 2-selections in all 4 flasks after 4 pulses and for 3-selections in 3 flasks after 5 pulses. Clonal lines were generated from each flask, and one clone per flask was selected for WGS and EC50 determination (Tables S4 and S5). WGS analysis identified two single point mutations in PfATP4 that were not present in the original clonal Dd2 parasite line (Tables and S4). P412L was found in three of four flasks containing 2-selected resistance clones, and F917L was identified in all three flasks containing 3-selected clones and in the fourth flask containing 2-selected clones (Table S4). PfATP4 mutations identified by the WGS analysis in parasite lines were verified by PCR of the pfatp4 gene, followed by Sanger sequencing (Figures S5, S6 and Table S6). An additional protein coding gene (ribosomal protein S8e) was mutated in the 2-selections. However, this mutation was identified in only one of four sequenced clones and is therefore unlikely to be related to resistance to 2 (Figure S7). All three resistant clones derived from the 3-selections harbored an identical mutation in a gene (pfcpu) encoding a conserved protein of unknown function, which was absent in the parental line (Figure S8).
(§2) ABS P. falciparum 3D7, Dd2 or PfNF54^luc parasites (BEI resources) were cultured in RPMI 1640 medium (Millipore Sigma), supplemented with 25 mM HEPES, 0.5% Albumax-I (Thermo Scientific), 23 mM sodium bicarbonate, 92 μM hypoxanthine, and 10 μg/mL gentamicin sulfate at 37 °C, 5% CO2, using deidentified O^+ red blood cells (BioIVT) as previously described. − Growth inhibition assays were conducted in 96 well plate format using the SYBR Green or luciferase reporter assay depending on the strain with modifications as described , (see Supporting Information for a detailed description). Details for the luciferase reporter assay are described below under the BRRoK assay section.
(§3) EC50 and CC50 values were determined by nonlinear regression performed in GraphPad Prism Version 10. Unless otherwise specified, data were fitted to the log(inhibitor) vs response–variable slope with four parameters equation. […] For mutant cell lines and compound combinations where bottom plateau of zero growth was not reached, the bottom of the curve was defined at 0% based on background values obtained for parental Dd2 from the same study.
(§4) Resistant Dd2 parasites were selected using a high-pressure intermittent selection protocol using a previously described method. Selections were set up using 4 flasks per compound starting with approximately 3 × 10^9 parasites per flask (80 mL per flask, 4% hematocrit, 3% parasitemia at the beginning of each pulse, mostly ring-stage parasites via previous sorbitol synchronization. Pulse 1 and 2 (48 h) were conducted at 10xEC50, and subsequent pulses were conducted at 20xEC50. Parasites cleared within 48 h under these conditions. 3-Selections used a total of 4 pulses, while 2-selections required 5 pulses before resistant parasites emerged (Table S3). Culture media was replenished daily for a week after each pulse, then every 2 days with weekly replenishment of blood. Cultures were monitored by microscopy until recrudescence. Clonal parasites were obtained from each flask by limiting dilution and maintained in drug free RPMI-1640 media prior to being analyzed for EC50 shifts. […]

[4] = tested on: Dd2 PfATP4^F917L mutant clones; experiment: 72 h SYBR Green growth inhibition, 2- or 3-selected Dd2 clones with PfATP4 F917L (Phillips Lab); assay type: cell-based, Plasmodium falciparum; conditions: for EC50: Plasmodium falciparum
Method: as §1, §2, §3, §4

Dd2-B2 (PfATP4^WT) = experiment: Drug susceptibility assay for cross-resistance profiling (Fidock Lab), parental line; assay type: cell-based, Plasmodium falciparum; conditions: for EC50: Plasmodium falciparum
Dd2^L350H (PfATP4^L350H) = experiment: Drug susceptibility assay for cross-resistance profiling (Fidock Lab), L350H; assay type: cell-based, Plasmodium falciparum; conditions: Table 3 data set
Dd2^P412L (PfATP4^P412L) = experiment: Drug susceptibility assay for cross-resistance profiling (Fidock Lab), P412L; assay type: cell-based, Plasmodium falciparum; conditions: Table 3 data set
[5] = tested on: isolated Pf3D7 trophozoites, [Na+]cyt; experiment: Measurement of P. falciparum cytosolic Na+ concentration (SBFI); assay type: cell-based, Plasmodium falciparum; conditions: 50 nM
Method: Measurements were carried out in 96 well plates (excitation wavelengths: 340 and 380 nm; emission wavelength: 515 nm), as described previously. Fluorescence ratio values (340 nm/380 nm) were converted to [Na^+]cyt using a calibration procedure in which parasites were suspended in solutions of varying [Na^+] containing ionophores.

[6] = tested on: Pf3D7 trophozoite-stage parasites, cytosolic pH (pHcyt); cell-based assay for ATP4 inhibition; experiment: P. falciparum cytosolic dose response pH assay (BCECF, with concanamycin A); conditions: for EC50: Plasmodium falciparum, read-out: Pf3D7 pH EC50
[7] = tested on: P. falciparum NF54^luc parasites; experiment: 72 h SYBR Green growth inhibition, PfNF54^luc; assay type: cell-based; conditions: Plasmodium falciparum, 72 h SYBR Green assay, read-out: PfNF54^luc EC50
[8] = tested on: P. falciparum NF54^luc parasites; experiment: Luciferase reporter (LR) / BRRoK assay, PfNF54^luc; assay type: cell-based, Plasmodium falciparum; conditions: Plasmodium falciparum, NF54, Hec50; luciferase reporter, 6 h
PfD10 attB = experiment: 72 h SYBR Green growth inhibition, PfD10 attB; assay type: cell-based; conditions: Plasmodium falciparum; 72 h SYBR Green assay
PfD10 attB + yDHODH = experiment: 72 h SYBR Green growth inhibition, strain expressing yeast DHODH; assay type: cell-based; conditions: Plasmodium falciparum, read-out: PfD10 attB + yDHODH EC50, 72 h SYBR Green assay
[9] = Human HepG2 cytotoxicity assay (CellTiter Glo); assay type: cell-based; conditions: HepG2 cells
in vitro = in vitro ADME; conditions: human liver microsomes, 1 µM compound, 0.4 mg/mL protein
[10] = tested on: P. falciparum NF54^luc parasites; experiment: Luciferase reporter (LR) / BRRoK assay, PfNF54^luc; assay type: cell-based; conditions: Plasmodium falciparum, NF54, Hec50, 72 h
physchem = conditions: kinetic from dmso stock
[11] = DD2, read-out: EC50, 2-resistant Flask 2 Clone F9
[12] = DD2, read-out: EC50, 2-resistant Flask 3 Clone F5
[13] = DD2, read-out: EC50, 2-resistant Flask 4 Clone E10
[14] = DD2, read-out: EC50, 2-selected flask #3 clone F5
[15] = DD2, read-out: EC50, 2-resistant Flask 1 Clone B6
[16] = DD2, read-out: EC50, 3-resistant Flask 2 Clone D10
[17] = DD2, read-out: EC50, 3-resistant Flask 3 Clone D8
[18] = DD2, read-out: EC50, 3-resistant Flask 4 Clone B3
[19] = DD2, read-out: EC50, 3-selected flask #3 clone D8
[20] = Plasmodium falciparum, DD2, 15-selected line

**Q.** What does the source list for `C[C@H]1Cc2c([nH]c3cc(Cl)c(F)cc23)[C@@]2(N1)C(=O)Nc1ccc(Cl)cc12` [KAE609, cipargamin, reference compound]?
**A.** EC50 [1]: 0.001 ± 3.8e-05 µM; EC50 [2]: 0.0012 ± 8.7e-05 µM; EC50 [3, 11]: 0.014 ± 0.0014 µM; EC50 [3, 12]: 0.012 ± 0.0014 µM; EC50 [3, 13]: 0.014 ± 0.0011 µM; EC50 [3, 14]: 0.013 ± 0.0011 µM; Fold EC50 change compared to WT Dd2, 2-selected flask #3 clone F5 [3]: 11 fold; EC50 [4, 15]: 0.012 ± 0.00098 µM; EC50 [4, 16]: 0.012 ± 0.00034 µM; EC50 [4, 17]: 0.012 ± 0.00097 µM; EC50 [4, 18]: 0.014 ± 0.0009 µM; EC50 [4, 19]: 0.012 ± 0.00058 µM; Fold EC50 change compared to WT Dd2, 3-selected flask #3 clone D8 [4]: 11 fold; EC50 (Dd2-B2 (PfATP4^WT); DD2, 72 h, read-out: EC50, Dd2-B2): 0.0013 ± 0.0001 µM; EC50 (Dd2-B2 (PfATP4^WT); DD2, read-out: EC50, Dd2-B2): 0.0021 µM; Fold change, Dd2-B2 (Dd2-B2 (PfATP4^WT); parent, Table S8): 1 fold; EC50 (Dd2^L350H (PfATP4^L350H); [20]): 0.0048 ± 0.0003 µM; EC50 fold-change vs Dd2-B2, Dd2^L350H (Dd2^L350H (PfATP4^L350H)): 3.7 fold and 4- to 6 fold; EC50 (Dd2^P412L (PfATP4^P412L); [20]): 0.011 ± 0.0007 µM; EC50 fold-change vs Dd2-B2, Dd2^P412L (Dd2^P412L (PfATP4^P412L)): 8.5 fold; increase in [Na+]cyt (in words) [5]: increase in [Na^+]cyt; difference between pH EC50 and growth inhibition EC50 ([6]; Pf3D7, 72 h SYBR Green vs pH assay): ≤ 3.2 fold; effect on parasite cytosolic pH (pHcyt) in presence of CMA (in words) ([6]; Pf3D7, CMA 50 nM): increase in pHcyt; EC50 [6]: 0.003 ± 0.0021 µM

**Q.** For `COc1ccc(Cl)cc1NC(=O)Cn1cccc1-c1nnc(C2CC2)o1` [compound 1, N-(5-chloro-2-methoxyphenyl)-2-(2-(5-cyclopropyl-1,3,4-oxadiazol-2-yl)-1H-pyrrol-1-yl)acetamide], which EC50 [1] is on record?
**A.** The EC50 was 2.5 ± 0.26 µM.

**Q.** And the EC50 [2]?
**A.** Its EC50 is 2.4 ± 0.13 µM.

**Q.** What about the EC50 [7] of the same molecule?
**A.** Its EC50 is 3 ± 0.93 µM.

**Q.** And the EC50 [8]?
**A.** Its EC50 is 3.2 ± 0.016 µM.

**Q.** And the EC50 (PfD10 attB)?
**A.** Its EC50 is 2.9 µM.

**Q.** What about the EC50 (PfD10 attB + yDHODH) of the same molecule?
**A.** The EC50 was 3.2 µM.

**Q.** What about the CC50 at 96 h [9] of the same molecule?
**A.** Its CC50 at 96 h is > 50 µM.

**Q.** What about the microsomal CLint (in vitro) of the same molecule?
**A.** Its microsomal CLint is 279 µL/min/mg.

**Q.** And the EC50 [3, 11]?
**A.** Its EC50 is 7.5 ± 2.4 µM.

**Q.** And the EC50 [3, 12]?
**A.** Its EC50 is 7.6 ± 2 µM.

**Q.** And the EC50 [3, 13]?
**A.** The EC50 was 9.4 ± 2.5 µM.

**Q.** And the EC50 [3, 14]?
**A.** Its EC50 is 8.3 ± 1.1 µM.

**Q.** What about the “Fold EC50 change compared to WT Dd2, 2-selected flask #3 clone F5” value [3] of the same molecule?
**A.** Its value is 3.4 fold.

**Q.** What about the EC50 [4, 15] of the same molecule?
**A.** The EC50 was > 10 µM.

**Q.** And the EC50 [4, 16]?
**A.** Its EC50 is > 10 µM.

**Q.** What about the EC50 [4, 17] of the same molecule?
**A.** Its EC50 is > 10 µM.

**Q.** What about the EC50 [4, 18] of the same molecule?
**A.** Its EC50 is > 10 µM.

**Q.** And the EC50 [4, 19]?
**A.** The EC50 was 12 ± 0.46 µM.

**Q.** And the “Fold EC50 change compared to WT Dd2, 3-selected flask #3 clone D8” value [4]?
**A.** Its value is 4.6 fold.

**Q.** What about the EC50 [10] of the same molecule?
**A.** Its EC50 is 1.6 ± 0.075 µM.

**Q.** What about the solubility (physchem; pH 2, simulated gastric fluid) of the same molecule?
**A.** The solubility was 25 µM (≈ 9.32 µg/mL).

**Q.** What about the solubility (physchem; pH 6.5, aqueous buffer) of the same molecule?
**A.** Its solubility is 12.5 µM (≈ 4.66 µg/mL).

**Q.** And the EC50 [6]?
**A.** Its EC50 is 4.5 ± 2 µM.
